In one assay the target is T1, EGFR T790M L858R (Homo sapiens, UniProt P00533, L858R/T790M).
T1 construct: purchased Life Technologies PV4879
Briefly: EGFR T790M L858R biochemical assay (Caliper mobility shift). The conditions noted are these: 5 μM ATP; apparent Ki (Morrison fit) converted by Cheng-Prusoff, Km of ATP 1.3 μM. The procedure, abridged: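 Reactions run 30 minutes at room temperature (22 °C), stopped with 80 mM EDTA. Phosphorylated product and substrate separated electrophoretically and quantified by Caliper mobility shift.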

The target of a further assay is T2, EGFR del746-750 T790M (Homo sapiens, UniProt P00533, DEL746-750/T790M).
T2 construct: purchased Carna Biosciences 08-528
T2 sequence (P00533 with tags, fused parts or gaps DEL746-750/T790M limits assumed): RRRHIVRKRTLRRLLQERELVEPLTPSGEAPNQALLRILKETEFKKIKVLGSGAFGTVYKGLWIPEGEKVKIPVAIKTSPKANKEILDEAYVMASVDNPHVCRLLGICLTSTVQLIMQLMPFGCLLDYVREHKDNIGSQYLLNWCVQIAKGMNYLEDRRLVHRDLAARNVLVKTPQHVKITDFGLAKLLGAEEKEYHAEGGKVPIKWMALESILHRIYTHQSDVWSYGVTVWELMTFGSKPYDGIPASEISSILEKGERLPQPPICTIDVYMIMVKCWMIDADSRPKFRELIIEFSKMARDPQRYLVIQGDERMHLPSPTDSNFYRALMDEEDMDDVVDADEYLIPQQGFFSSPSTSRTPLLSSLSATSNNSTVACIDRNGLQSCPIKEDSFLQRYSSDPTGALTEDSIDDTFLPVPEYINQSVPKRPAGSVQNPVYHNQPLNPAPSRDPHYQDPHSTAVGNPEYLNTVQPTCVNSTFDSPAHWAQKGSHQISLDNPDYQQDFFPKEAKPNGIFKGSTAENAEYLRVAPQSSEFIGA
Briefly: EGFR del746-750 T790M biochemical assay (Caliper mobility shift). The conditions noted are these: 5 μM ATP; apparent Ki (Morrison fit) converted by Cheng-Prusoff, Km of ATP 2.1 μM; read-out: EGFR(T790M/d746-750) Ki. On the procedure: The exemplified compounds described herein were tested according to the assay below. The enzyme data reported in Tables 4-5 is generally a representative of multiple experiments.
Reactions proceed for 30 minutes at room temperature (22° C.) and are terminated with 80 mM 2,2′,2″,2″′-(ethane-1,2-diyldinitrilo)tetraacetic acid (EDTA). Product is detected using the Caliper mobility shift detection method where product and substrate are electrophoretically separated and measured.

The target of assay [1] is T3, phosphor-EGFR in H1975(L585R/T790M) mutant EGFR expressing cells (Homo sapiens, UniProt P00533, L858R/T790M).
T3 construct: host or cells: NCI-H1975
T3 sequence (P00533 25-1210 T790M/L858R): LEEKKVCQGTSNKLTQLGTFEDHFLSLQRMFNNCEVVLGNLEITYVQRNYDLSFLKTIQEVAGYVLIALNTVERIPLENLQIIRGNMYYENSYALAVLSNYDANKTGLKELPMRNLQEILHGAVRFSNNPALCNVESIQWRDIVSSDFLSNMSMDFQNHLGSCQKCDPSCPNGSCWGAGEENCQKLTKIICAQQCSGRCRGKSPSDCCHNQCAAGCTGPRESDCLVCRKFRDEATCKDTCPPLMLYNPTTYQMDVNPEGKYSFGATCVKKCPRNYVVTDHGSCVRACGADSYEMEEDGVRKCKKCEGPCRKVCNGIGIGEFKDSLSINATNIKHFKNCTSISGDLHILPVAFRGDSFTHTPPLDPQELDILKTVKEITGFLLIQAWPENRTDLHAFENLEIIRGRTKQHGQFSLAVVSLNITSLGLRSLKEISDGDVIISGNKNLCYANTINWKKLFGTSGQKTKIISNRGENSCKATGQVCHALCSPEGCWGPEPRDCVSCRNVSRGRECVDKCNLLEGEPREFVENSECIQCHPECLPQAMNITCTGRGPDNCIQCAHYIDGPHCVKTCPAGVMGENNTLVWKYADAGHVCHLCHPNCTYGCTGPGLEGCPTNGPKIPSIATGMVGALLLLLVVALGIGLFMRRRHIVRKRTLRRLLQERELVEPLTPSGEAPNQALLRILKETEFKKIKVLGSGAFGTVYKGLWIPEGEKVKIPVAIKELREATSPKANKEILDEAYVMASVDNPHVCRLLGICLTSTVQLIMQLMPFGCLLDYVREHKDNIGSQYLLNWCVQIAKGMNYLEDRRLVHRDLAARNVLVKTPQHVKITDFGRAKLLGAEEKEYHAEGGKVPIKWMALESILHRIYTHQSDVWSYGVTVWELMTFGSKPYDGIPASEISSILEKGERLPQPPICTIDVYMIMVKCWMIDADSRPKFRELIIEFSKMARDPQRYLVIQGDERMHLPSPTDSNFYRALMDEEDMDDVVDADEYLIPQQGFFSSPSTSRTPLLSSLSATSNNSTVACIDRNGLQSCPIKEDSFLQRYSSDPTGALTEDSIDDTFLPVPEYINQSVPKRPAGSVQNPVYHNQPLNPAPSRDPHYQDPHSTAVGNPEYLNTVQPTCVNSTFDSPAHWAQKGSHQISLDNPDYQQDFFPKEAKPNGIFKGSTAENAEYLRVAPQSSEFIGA
Briefly: H1975 pEGFR MSD cellular assay. The format is cell-based. The conditions noted are these: NCI-H1975 cells, serum starved, 1 hour compound incubation, pEGFR Tyr1068 MSD; read-out: HI975 pEGFR EC50. The method, boiled down:
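NCI-H1975 cells, 30,000/well, serum-starved overnight, then treated 1 hour at 37° C with serially diluted compounds in serum-free medium (0.5% DMSO). Lysates captured on anti-phospho-EGFR plates overnight at 4° C, detected with SULFO-TAG anti-total EGFR by electrochemiluminescence. Inhibition vs untreated controls; EC50 from 4-parameter logistic fit.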

In assay [2] the test system is H1975 (EGFR T790M/L858R) cell proliferation. The assay is described as follows: H1975 proliferation assay (Cell Titer-Glo). The format is cell-based. The conditions noted are these: Homo sapiens, NCI-H1975, 72 h, NCI-H1975 cells, 72 hour incubation, read-out: H1975 antiproliferative EC50. As to the method:
H1975 Proliferation Assays
All cell culture reagents were purchased from Invitrogen/Gibco. Cells are cultured at 37° C. at 5% CO2 and split as recommended by ATCC.
Background: Cellular ATP, detected with luciferase, serves as a proxy for viable cell number.

SMILES strings stand for the structures.

T1 sequence (P00533 25-1210 T790M/L858R): as above

Consider `CC(C)n1nc(NC(C)(C)C(N)=O)c2cnc(Nc3ccnc(N4CC[C@H](O)[C@H](F)C4)n3)cc21` (racemic) [Example 182, (±)-2-(6-(2-(cis-3-Fluoro-4-hydroxypiperidin-1-yl)pyrimidin-4-ylamino)-1-isopropyl-1H-pyrazolo[4,3-c]pyridin-3-ylamino)-2-methylpropanamide], for which the Ki was determined as 0.377 µM on EGFR T790M L858R and 1.15 µM at EGFR del746-750 T790M.

As to `CC[C@H](C)n1nc(N2CC[C@@H](O)C2)c2cnc(Nc3ccnc(N4CC[C@](C)(C(N)=O)C4)n3)cc21` (relative stereo) [Example 209, (S*)-1-(4-((1-((S*)-sec-Butyl)-3-((R)-3-hydroxypyrrolidin-1-yl)-1H-pyrazolo[4,3-c]pyridin-6-yl)amino)pyrimidin-2-yl)-3-methylpyrrolidine-3-carboxamide], the Ki on EGFR T790M L858R was 0.143 µM; at EGFR del746-750 T790M it was 0.111 µM.

For `CCC(C)n1nc(N2CC[C@@H](O)C2)c2cnc(Nc3ccnc(N4CCC5(CC4)CNC(=O)CO5)n3)cc21` (single isomer, unassigned) [Example 207, 9-(4-((1-((S*)-sec-Butyl)-3-((R)-3-hydroxypyrrolidin-1-yl)-1H-pyrazolo[4,3-c]pyridin-6-yl)amino)pyrimidin-2-yl)-1-oxa-4,9-diazaspiro[5.5]undecan-3-one], the Ki on EGFR T790M L858R was determined as 0.469 µM; on EGFR del746-750 T790M, 1.06 µM.

For orientation: EC50 means the concentration at which the effect is half-maximal. Regarding `CC(C)n1nc(N2CC(C(N)=O)C2)c2cnc(Nc3ccnc(-c4cnn(S(=O)(=O)C5CC5)c4)n3)cc21` [Example 55, 1-(6-(2-(1-(cyclopropylsulfonyl)-1H-pyrazol-4-yl)pyrimidin-4-ylamino)-1-isopropyl-1H-pyrazolo[4,3-c]pyridin-3-yl)azetidine-3-carboxamide], at EGFR T790M L858R, the Ki was < 0.0006 µM. The EC50 came out at 0.144 µM in assay [1] and 0.938 µM in assay [2].

As to `CC(C)n1nc(N2CC(C(=O)N(C)C)C2)c2cnc(Nc3ccnc(N4CCC(O)C(C)(C)C4)n3)cc21` (stereo not shown) [Example 56, 1-(6-(2-(4-hydroxy-3,3-dimethylpiperidin-1-yl)pyrimidin-4-ylamino)-1-isopropyl-1H-pyrazolo[4,3-c]pyridin-3-yl)-N,N-dimethylazetidine-3-carboxamide], the Ki at EGFR T790M L858R was determined as 0.0012 µM. Further, the EC50 in assay [1] was 0.0311 µM; in assay [2], 0.348 µM.

With `CC(C)n1nc(N2CC(C(=O)N(C)C)C2)c2cnc(Nc3ccnc(-c4cnn(S(=O)(=O)C5CC5)c4)n3)cc21` [Example 57, 1-(6-(2-(1-(cyclopropylsulfonyl)-1H-pyrazol-4-yl)pyrimidin-4-ylamino)-1-isopropyl-1H-pyrazolo[4,3-c]pyridin-3-yl)-N,N-dimethylazetidine-3-carboxamide], the Ki at EGFR T790M L858R is < 0.0006 µM. Also, the EC50 in assay [1] was determined as 0.0181 µM; in assay [2], 0.159 µM.

In the case of `CC(C)n1nc(N2CC[C@H](CO)C2)c2cnc(Nc3ccnc(-c4cnn(S(=O)(=O)C5CC5)c4)n3)cc21` [Example 58, (S)-(1-(6-(2-(1-(cyclopropylsulfonyl)-1H-pyrazol-4-yl)pyrimidin-4-ylamino)-1-isopropyl-1H-pyrazolo[4,3-c]pyridin-3-yl)pyrrolidin-3-yl)methanol], on EGFR T790M L858R, the Ki came to 0.0012 µM. In addition, the EC50 in assay [1] was determined as 0.0094 µM; in assay [2], 0.139 µM.

Turning to `CC(C)n1nc(NCC(C)(C)O)c2cnc(Nc3ccnc(-c4cnn(S(=O)(=O)C5CC5)c4)n3)cc21` [Example 61, 1-(6-(2-(1-(cyclopropylsulfonyl)-1H-pyrazol-4-yl)pyrimidin-4-ylamino)-1-isopropyl-1H-pyrazolo[4,3-c]pyridin-3-ylamino)-2-methylpropan-2-ol], on EGFR T790M L858R, the Ki is 0.001 µM. The EC50 in assay [1] came to 0.0689 µM; in assay [2] it was 1.2 µM.

As to `CC(C)Oc1nn(C(C)C)c2cc(Nc3ccnc(-c4cnn(S(=O)(=O)C5CC5)c4)n3)ncc12` [Example 62, N-(2-(1-(cyclopropylsulfonyl)-1H-pyrazol-4-yl)pyrimidin-4-yl)-3-isopropoxy-1-isopropyl-1H-pyrazolo[4,3-c]pyridin-6-amine], the Ki on EGFR T790M L858R was determined as 0.012 µM. The concentration for a half-maximal effect (EC50) in assay [1] worked out at 0.458 µM; in assay [2], 3.59 µM.

As to `CC(C)n1nc(N2CCN(C(=O)C(C)(C)O)CC2)c2cnc(Nc3ccnc(N4CCC(C)(O)CC4)n3)cc21` [Example 78, 2-Hydroxy-1-(4-(6-(2-(4-hydroxy-4-methylpiperidin-1-yl)pyrimidin-4-ylamino)-1-isopropyl-1H-pyrazolo[4,3-c]pyridin-3-yl)piperazin-1-yl)-2-methylpropan-1-one], the Ki was determined as 0.0215 µM at EGFR T790M L858R and 0.0755 µM at EGFR del746-750 T790M.

For `CC1CCC(C)N1c1nn(C(C)C)c2cc(Nc3ccnc(-c4cnn(S(=O)(=O)C5CC5)c4)n3)ncc12` (stereo not shown) [Example 91, N-(2-(1-(Cyclopropylsulfonyl)-1H-pyrazol-4-yl)pyrimidin-4-yl)-3-(2,5-dimethylpyrrolidin-1-yl)-1-isopropyl-1H-pyrazolo[4,3-c]pyridin-6-amine], the Ki is 0.0202 µM at EGFR T790M L858R and 0.0204 µM on EGFR del746-750 T790M.

Turning to `CC(C)n1nc(C#N)c2cnc(Nc3ccnc(-c4cnn(S(=O)(=O)C5CC5)c4)n3)cc21` [Example 93, 6-(2-(1-(Cyclopropylsulfonyl)-1H-pyrazol-4-yl)pyrimidin-4-ylamino)-1-isopropyl-1H-pyrazolo[4,3-c]pyridine-3-carbonitrile], the Ki at EGFR T790M L858R was determined as 0.11 µM; at EGFR del746-750 T790M, 0.0654 µM.

Consider `CC(C)n1nc(C2(C)CCCO2)c2cnc(Nc3ccnc(N4CCC(C)(O)CC4)n3)cc21` (stereo not shown) [Example 94, 1-(4-(1-Isopropyl-3-(2-methyltetrahydrofuran-2-yl)-1H-pyrazolo[4,3-c]pyridin-6-ylamino)pyrimidin-2-yl)-4-methylpiperidin-4-ol], for which the Ki at EGFR T790M L858R is 0.872 µM; at EGFR del746-750 T790M, > 2.9 µM.

For the compound `CC(C)n1nc(C2=NC(C)(C)NC2=O)c2cnc(Nc3ccnc(N4CCC(C)(O)CC4)n3)cc21` [Example 95, 4-(6-(2-(4-Hydroxy-4-methylpiperidin-1-yl)pyrimidin-4-ylamino)-1-isopropyl-1H-pyrazolo[4,3-c]pyridin-3-yl)-2,2-dimethyl-1,2-dihydroimidazol-5-one], the Ki on EGFR T790M L858R turned out to be 0.0152 µM; on EGFR del746-750 T790M it was 0.0595 µM.

Consider `CCC(=O)N1CCN(c2nn(C(C)C)c3cc(Nc4ccnc(N5CCC(C)(O)CC5)n4)ncc23)CC1` [Example 134, 1-(4-(6-(2-(4-Hydroxy-4-methylpiperidin-1-yl)pyrimidin-4-ylamino)-1-isopropyl-1H-pyrazolo[4,3-c]pyridin-3-yl)piperazin-1-yl)propan-1-one], for which the results for the Ki at EGFR T790M L858R and on EGFR del746-750 T790M were 0.0115 µM and 0.0337 µM, respectively.

For `CC(C)n1nc(N2CCN(C(=O)CO)CC2)c2cnc(Nc3ccnc(N4CCC(C)(O)CC4)n3)cc21` [Example 135, 2-Hydroxy-1-(4-(6-(2-(4-hydroxy-4-methylpiperidin-1-yl)pyrimidin-4-ylamino)-1-isopropyl-1H-pyrazolo[4,3-c]pyridin-3-yl)piperazin-1-yl)ethanone], the Ki worked out at 0.0103 µM at EGFR T790M L858R and 0.0463 µM on EGFR del746-750 T790M.

`COCC1CN(c2nn(C(C)C)c3cc(Nc4ccnc(-c5cnn(S(=O)(=O)C6CC6)c5)n4)ncc23)C1` [Example 152, N-(2-(1-(Cyclopropylsulfonyl)-1H-pyrazol-4-yl)pyrimidin-4-yl)-1-isopropyl-3-(3-(methoxymethyl)azetidin-1-yl)-1H-pyrazolo[4,3-c]pyridin-6-amine]: on EGFR del746-750 T790M, the Ki came out at 0.0008 µM. The EC50 in assay [2] turned out to be 0.211 µM.

The values above are taken from patent US9951064B2, “Azaindazole compounds as inhibitors of T790M containing EGFR mutants” (Genentech, Inc., priority 2013, dated 2018).
